Compound: CCOc1cc2ncc(C#N)c(Nc3ccc(OCc4ccccn4)c(Cl)c3)c2cc1NC(=O)/C=C/CN(C)C [Neratinib] + COc1cc2c(Oc3ccc(NC(=O)C4(C(=O)Nc5ccc(F)cc5)CC4)cc3F)ccnc2cc1OCCCN1CCOCC1 [Foretinib] (partner 0.25 µM)
Assay: relative viability (nuclei count vs DMSO), 5 days (fraction); higher = more cells survive
Summary of the method: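 Dosing by pin tool came one day after lung cancer cell lines were seeded in 1536-well plates, using either one drug or a fixed anchor-drug dose plus five library-drug doses (not always all listed) in √10 steps. After 5 days, nuclei were counted on 4× images. Relative viability is treated-well nuclei count divided by vehicle-well nuclei count, and values are medians of duplicate plates.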

| Cell Line | relative viability (first compound 0.01 µM) | relative viability (first compound 0.03162 µM) | relative viability (first compound 0.1 µM) | relative viability (first compound 0.3162 µM) | relative viability (first compound 1 µM) |
| --- | --- | --- | --- | --- | --- |
| LCLC-97TM1 | 1.07 | 0.952 | 0.829 | 0.824 | 0.483 |
| HARA | 0.973 | 0.91 | – | 0.496 | 0.375 |
| HCC-78 | 0.561 | 0.555 | 0.499 | 0.344 | 0.365 |
| NCI-H1666 | 0.973 | 0.912 | 0.754 | 0.646 | 0.721 |
| NCI-H2405 | 1.06 | 1.08 | 0.922 | 1.04 | 0.57 |
| RERF-LC-KJ | 0.924 | 0.992 | 0.896 | 0.872 | 0.43 |
| NCI-H2085 | 0.801 | 1.08 | 0.761 | 0.64 | 0.31 |
| 201T | 1.06 | 1.12 | 0.797 | 0.995 | – |
| NCI-H1915 | 1.08 | 1.08 | 1.08 | 1.05 | 0.709 |
| NCI-H2023 | 0.797 | 0.803 | 0.415 | 0.454 | 0.257 |
| BEN | 0.66 | 0.631 | 0.822 | 0.657 | 0.498 |
| SK-LU-1 | 0.917 | 0.938 | 0.816 | 0.46 | 0.302 |
| SK-MES-1 | 0.97 | 0.985 | 0.735 | 0.832 | 0.375 |
| PC-3 [JPC-3] | 1.07 | 1.14 | 0.927 | 0.815 | 0.318 |
| NCI-H1355 | – | – | 0.874 | 0.842 | 0.366 |
| NCI-H1975 | – | 1.02 | 0.972 | 0.421 | 0.174 |
| LK-2 | 1.27 | 1.6 | 1.24 | 0.958 | 0.656 |
| PC-14 | 1.04 | 0.973 | 0.862 | 0.929 | 0.335 |
| NCI-H2342 | 1.08 | 0.993 | 0.891 | 0.703 | 0.525 |

| Cell Line | relative viability (first compound 0.01 µM) | relative viability (first compound 0.03162 µM) | relative viability (first compound 0.1 µM) | relative viability (first compound 0.3162 µM) | relative viability (first compound 1 µM) |
| --- | --- | --- | --- | --- | --- |
| HCC-366 | 0.971 | 0.961 | 0.844 | 0.856 | 1.03 |
| HOP-62 | 1.16 | 1.08 | 0.982 | 1.14 | 0.92 |
| NCI-H1944 | 0.878 | 0.929 | – | 0.599 | 0.327 |
| NCI-H596 | 0.89 | 0.986 | – | 0.798 | 0.622 |
| LU99A | 0.959 | – | 0.73 | 0.462 | 0.376 |
| NCI-H727 | 0.978 | 0.709 | 0.793 | 0.842 | 0.558 |
| A-427 | 1.05 | – | 0.972 | 0.935 | 0.255 |
| COR-L 105 | 0.995 | 1.28 | 0.54 | 0.324 | 0.284 |
| NCI-H460 | 1.12 | 1.15 | 0.862 | 1.04 | 0.87 |
| NCI-H2228 | – | 0.95 | 0.715 | 0.646 | 0.204 |
| EBC-1 | 0.102 | 0.0886 | 0.111 | 0.113 | 0.0982 |
| NCI-H520 | 0.96 | – | 0.61 | – | 0.394 |
| NCI-H1993 | 0.82 | 0.662 | 0.6 | 0.567 | 0.657 |
| SW 900 | 0.937 | 0.917 | – | 0.865 | 0.709 |
| NCI-H441 | 1.01 | 1.04 | 1.07 | 0.856 | 0.492 |
| EKVX | 0.697 | 0.952 | 0.578 | 0.567 | 0.193 |
| NCI-H1734 | 0.953 | 0.887 | 0.683 | 0.775 | 0.469 |
| ABC-1 | 1.16 | 1.12 | 0.689 | 0.954 | 0.466 |

Source: the supplement of paper PMC10307832
